Experimental data from patent publication US20160106711A1, “3-3-Di-Substituted-Oxindoles as Inhibitors of Translation Initiation” (President and Fellows of Harvard College, priority 2012, published 2016).

What was measured:
KLN = assay: Cell growth assay (sulforhodamine B), KLN cells; format: cell-based, mouse; conditions: Mus musculus, 120 h, 5 days, SRB
Protocol: […] Plates were then incubated with 0.4% SRB in 1% acetic acid for 1 h, washed with 1% acetic acid to remove the unbound dye, and air-dried. The bound dye was solubilized by addition of 10 mM Tris (pH 10), and the absorbance was determined in a Titertek Multiscan plate reader at 490 nm. The data calculations were carried out as described (the values for mean±SD of data from replicate wells are calculated): data are expressed in terms of % T/C [(OD of treated cells/OD of control cells)×100], as a measure of cell viability and survival in the presence of test materials. Calculations are also made for the concentration of test agents giving a T/C value of 50%, or 50% growth inhibition (IC50). With the SRB assay, a measure is made of the cell population density at time 0 (the time at which drugs are added) from two extra reference plates of inoculated cells fixed with TCA just prior to drug addition to the test plates. Thus, we have three measurements: control optical density (C), test optical density (T), and optical density at time zero (T0). The calculation is 100×[(T−T0)/(C−T0)]. If T is less than T0, cell killing has occurred and can be calculated from 100×[(T−T0)/T0]. Thus, for each drug-cell line combination, a dose-response curve is generated and three levels of effect are calculated.

CRL-2813 = assay: Cell growth assay (sulforhodamine B), CRL-2813 cells; format: cell-based, human; conditions: Homo sapiens, CRL2813, 120 h, 5 days, SRB
Protocol: (§1) Adherent mouse (KLN) and human solid tumor cells (CRL-2351, and CRL-2813) were plated in 96-well plates and maintained for 5 days in the presence of 0.54 to 6 μM of individual compound, and cell proliferation was measured by the sulforhodamine B (SRB) assay as described in ref. 11: briefly, cells were fixed in 10% cold trichloroacetic acid at 4° C. for 1 h, extensively washed with double-distilled H2O and air-dried. Plates were then incubated with 0.4% SRB in 1% acetic acid for 1 h, washed with 1% acetic acid to remove the unbound dye, and air-dried. The bound dye was solubilized by addition of 10 mM Tris (pH 10), and the absorbance was determined in a Titertek Multiscan plate reader at 490 nm. The data calculations were carried out as described (the values for mean±SD of data from replicate wells are calculated): data are expressed in terms of % T/C [(OD of treated cells/OD of control cells)×100], as a measure of cell viability and survival in the presence of test materials. Calculations are also made for the concentration of test agents giving a T/C value of 50%, or 50% growth inhibition (IC50). With the SRB assay, a measure is made of the cell population density at time 0 (the time at which drugs are added) from two extra reference plates of inoculated cells fixed with TCA just prior to drug addition to the test plates. Thus, we have three measurements: control optical density (C), test optical density (T), and optical density at time zero (T0). The calculation is 100×[(T−T0)/(C−T0)]. If T is less than T0, cell killing has occurred and can be calculated from 100×[(T−T0)/T0]. Thus, for each drug-cell line combination, a dose-response curve is generated and three levels of effect are calculated.

[1] = tested on: eIF2•GTP•Met-tRNAi ternary complex; assay: Ternary complex assay (ATF-4 assay), dual luciferase firefly/renilla ratio; format: cell-based, mouse; conditions: Mus musculus; for maximal fold induction at 20 µM / maximal fold induction at 80 µM / maximal fold induction at 10 µM / maximal fold induction at 2.5 µM: read-out: ATF-4 Xmax; for maximal fold induction at 40 µM: read-out: ATF-4 Xmax @ 40 μM
From the text: For assay development, a bi-directional plasmid was designed in which a common promoter/enhancer complex drives the transcription of firefly luciferase (F-luc) ORF fused to the 5′ untranslated region (UTR) of ATF-4, and of the renilla luciferase (R-luc) ORF fused to a 90-nucleotide 5′ UTR derived from the plasmid (FIG. 6A). Because the tetracycline-regulated transactivator ((tTA), required for driving transcription from this vector) is not normally expressed in the mammalian cells, stable KLN cancer cells were constructed that expressed tTA (KLN-tTA).
The KLN-tTA colonies that drove expression of reporter genes from pBISA-DL plasmid were selected by transient transfection and dual luciferase assay. One of these KLN-tTA cell lines was transfected with the pBISA-DL^(ATF-4) expression vector, stable colonies were selected by dual luciferase assay and expanded.
Plasmids and Ternary Complex Assay
(ATF-4 Assay). Briefly, bi-directional mammalian expression vector pBI (Clontech, CA) was modified to expand the multiple cloning sites (MCSs) and designated thereafter as pBISA. This vector contains seven copies of the tetracycline-regulated transactivator response element (TRE), which together act as core promoter/enhancer. The TRE is flanked on both sides by minimal human cytomegalovirus (CMV) minimal promoters allowing bi-directional transcription and two MCSs. Firefly and renilla luciferases were subcloned into MCS-I and MCS-II, respectively. This plasmid, designated pBISA-DL, transcribes two mRNAs that contain the 90 nucleotide plasmid derived 5′UTR (same sequence in both mRNAs), and the ORF encoding either firefly or renilla luciferase followed by a polyadenylation sequence as described in Ziegeler, G.; Ming, J.; Koseki, J. C.; Sevinc, S.; Chen, T.; Ergun, S.; Qin, X.; Aktas, B. H. J. Biol. Chem. 2010, 285, 15408 hereby incorporated by reference. This plasmid was further modified by inserting the 5′UTR of ATF-4 into MCS-I in front of the firefly luciferase mRNA. Transcription from this direction generates an mRNA that contains the firefly luciferase ORF preceded by a 5′UTR composed of 90 nucleotides derived from the plasmid and 267 nucleotides derived from the 5′UTR of ATF-4 mRNA. Transcription from the other direction generates an mRNA that contains the renilla luciferase ORF proceeded only by the 90-nucleotide plasmid-derived sequence in the 5′UTR. This expression plasmid is called pBISA-DL(ATF-4). In the dual luciferase assay, cells expressing firefly and renilla luciferases were lysed and the extracts assayed with a Dual-Glo Luciferase assay kit, per manufacturer's instruction (Promega Inc., Madison, Wis.). The data calculations were carried out as the ratio of firefly to renilla luciferase signal as described in Chen, T.; Ozel, D.; Qiao, Y.; Harbinski, F.; Chen, L.; Denoyelle, S.; He, X.; Zvereva, N.; Supko, J. G.; Chorev, M.; Halperin, J. A.; Aktas, B. H. Nat. Chem. Biol. 2011, 7, 610 hereby incorporated by reference.

CRL-2351 = assay: Cell growth assay (sulforhodamine B), CRL-2351 cells; format: cell-based, human; conditions: Homo sapiens, 120 h, 5 days, SRB
Protocol: as §1

## CN(C)CCOc1ccc(C(C)(C)C)cc1C1(c2cc(C(C)(C)C)ccc2O)C(=O)Nc2ccccc21 (stereo not drawn) [HY077]
KLN
  IC50: 1.7 ± 0.9 µM
CRL-2813
  IC50: 1.2 ± 0.4 µM
[1]
  maximal fold induction at 20 µM: 4.65 ± 0.88
CRL-2351
  IC50: 1.9 ± 1 µM

## CN1CCN(CCOc2ccc(C(C)(C)C)cc2C2(c3cc(C(C)(C)C)ccc3O)C(=O)Nc3ccccc32)CC1 (stereo not drawn) [HY080]
KLN
  IC50: 2.9 ± 0.8 µM
CRL-2813
  IC50: 1.4 ± 0.5 µM
[1]
  maximal fold induction at 20 µM: 24.6 ± 3.37
CRL-2351
  IC50: 0.75 ± 0.1 µM

## CC(C)(C)c1ccc(O)c(C2(c3cc(C(C)(C)C)ccc3OCCBr)C(=O)Nc3ccccc32)c1 (stereo not drawn) [HY083]
KLN
  IC50: 11.4 ± 2.2 µM
CRL-2813
  IC50: 1 ± 0.9 µM
[1]
  maximal fold induction at 40 µM: 12.9 ± 2.11
CRL-2351
  IC50: 2.4 ± 1.6 µM

## CC(=O)OCCOc1ccc(C(C)(C)C)cc1C1(c2cc(C(C)(C)C)ccc2O)C(=O)Nc2ccccc21 (stereo not drawn) [HY084]
KLN
  IC50: 11.4 ± 0.2 µM
CRL-2813
  IC50: 1.6 ± 0.4 µM
[1]
  maximal fold induction at 80 µM: 11.4 ± 0.4
  maximal fold induction at 40 µM: 8.59 ± 1.67
CRL-2351
  IC50: 2.7 ± 0.2 µM

## CN(C)CCN1C(=O)C(c2cc(C(C)(C)C)ccc2O)(c2cc(C(C)(C)C)ccc2O)c2ccccc21 [HY087]
KLN
  IC50: > 20 µM
CRL-2813
  IC50: > 20 µM
[1]
  maximal fold induction at 20 µM: 7.12 ± 1.3
CRL-2351
  IC50: 2.7 ± 0.2 µM

## CC(C)(C)c1ccc(O)c(C2(c3cc(C(C)(C)C)ccc3OCCN3CCCC3)C(=O)Nc3ccccc32)c1 (stereo not drawn) [HY091]
KLN
  IC50: 1.4 ± 0.4 µM
CRL-2813
  IC50: 10.7 ± 0.8 µM
[1]
  maximal fold induction at 10 µM: 2.73 ± 0.65
  maximal fold induction at 20 µM: 5.3 ± 0.7
CRL-2351
  IC50: 1 µM

## CN(C)CCOc1ccc(C(C)(C)C)cc1C1(c2cc(C(C)(C)C)ccc2OCCN(C)C)C(=O)N(CCN(C)C)c2ccccc21 [HY092]
KLN
  IC50: 0.2 ± 0.03 µM
CRL-2813
  IC50: 0.9 ± 0.01 µM
[1]
  maximal fold induction at 2.5 µM: 16.8 ± 2.18
CRL-2351
  IC50: 0.34 ± 0.18 µM

## CC(C)(C)c1ccc(O)c(C2(c3cc(C(C)(C)C)ccc3OCCN3CCCC3)C(=O)N(CCN3CCCC3)c3ccccc32)c1 (stereo not drawn) [HY093]
KLN
  IC50: 4.1 ± 0.8 µM
CRL-2813
  IC50: 7.25 ± 1.6 µM
[1]
  maximal fold induction at 20 µM: 2.21 ± 0.75
  maximal fold induction at 40 µM: 9 ± 1.7
CRL-2351
  IC50: 3.6 ± 0.7 µM

## CCCN1C(=O)C(c2cc(C(C)(C)C)ccc2O)(c2cc(C(C)(C)C)ccc2OCCN2CCCC2)c2ccccc21 (stereo not drawn) [HY098]
KLN
  IC50: 0.5 ± 0.2 µM
CRL-2813
  IC50: 0.9 ± 0.2 µM
[1]
  maximal fold induction at 10 µM: 8.7 ± 1.2
CRL-2351
  IC50: 0.3 ± 0.1 µM

## COc1ccc(C(C)C)cc1C1(c2cc(C(C)C)ccc2O)C(=O)Nc2ccccc21 (stereo not drawn) [HY161]
KLN
  IC50: > 20 µM
CRL-2813
  IC50: 1.4 ± 0.09 µM
[1]
  maximal fold induction at 40 µM: 3.91 ± 0.65
CRL-2351
  IC50: 7.2 ± 3 µM

## CC(C)(C)c1ccc(OCCO)c(C2(c3cc(C(C)(C)C)ccc3OCCO)C(=O)Nc3ccccc32)c1 [HY169]
KLN
  IC50: 11 ± 2.4 µM
CRL-2813
  IC50: 2.9 ± 0.1 µM
[1]
  maximal fold induction at 20 µM: 3.4 ± 0.1
CRL-2351
  IC50: 2.7 ± 0.3 µM

## CC(C)(C)c1ccc(OCCN2CCCCC2)c(C2(c3cc(C(C)(C)C)ccc3OCCN3CCCCC3)C(=O)Nc3ccccc32)c1 [HY172]
KLN
  IC50: 1.3 ± 0.3 µM
CRL-2813
  IC50: 11.6 ± 1.4 µM
[1]
  maximal fold induction at 80 µM: 5.91 ± 0.52
CRL-2351
  IC50: 2.14 ± 1.28 µM

## CN(C)CCOc1ccc(C(C)(C)C)cc1C1(c2cc(C(C)(C)C)ccc2OCCN(C)C)C(=O)Nc2ccccc21 [HY177]
KLN
  IC50: > 20 µM
CRL-2813
  IC50: 12.5 ± 1 µM
[1]
  maximal fold induction at 40 µM: 1.34 ± 0.38
CRL-2351
  IC50: 11.5 ± 1.5 µM

## CC(=O)OCCOc1ccc(C(C)(C)C)cc1C1(c2cc(C(C)(C)C)ccc2OCCOC(C)=O)C(=O)Nc2ccccc21 [HY184]
KLN
  IC50: > 20 µM
CRL-2813
  IC50: 2 µM
[1]
  maximal fold induction at 80 µM: 2.07 ± 1.6
CRL-2351
  IC50: 2 µM

## CC(C)(C)c1ccc(OCCN2CCCC2)c(C2(c3cc(C(C)(C)C)ccc3OCCN3CCCC3)C(=O)N(CCN3CCCC3)c3ccccc32)c1 [HY193]
KLN
  IC50: 2.11 ± 1.1 µM
CRL-2813
  IC50: 1.47 ± 1 µM
[1]
  maximal fold induction at 2.5 µM: 12.1 ± 1.8
  maximal fold induction at 40 µM: 9.09
CRL-2351
  IC50: 0.55 ± 0.17 µM

## CN(C)CCOc1ccc(C(C)(C)C)cc1C1(c2cc(C(C)(C)C)ccc2O)C(=O)N(CCN(C)C)c2ccccc21 (stereo not drawn) [HY277]
KLN
  IC50: 0.3 ± 0.1 µM
CRL-2813
  IC50: 0.9 ± 0.1 µM
[1]
  maximal fold induction at 10 µM: 14.3 ± 1.86
CRL-2351
  IC50: 0.3 ± 0.11 µM

## CC(C)(C)c1cccc(C2(c3cc(C(C)(C)C)ccc3O)C(=O)N(CCBr)c3ccccc32)c1 (stereo not drawn) [HY283]
KLN
  IC50: > 20 µM
CRL-2813
  IC50: 1.4 ± 0.4 µM
[1]
  maximal fold induction at 40 µM: 9.6 ± 0.16
CRL-2351
  IC50: 1.5 ± 0.7 µM

## CCN(CC)CCOc1ccc(C(C)(C)C)cc1C1(c2cc(C(C)(C)C)ccc2OCCN(CC)CC)C(=O)N(CCN(CC)CC)c2ccccc21 [HY296]
KLN
  IC50: 1.6 ± 0.5 µM
CRL-2813
  IC50: 0.72 ± 0.23 µM
[1]
  maximal fold induction at 2.5 µM: 14.3 ± 0.78
CRL-2351
  IC50: 0.59 ± 0.26 µM

## CCN(C)CCOc1ccc(C(C)(C)C)cc1C1(c2cc(C(C)(C)C)ccc2O)C(=O)Nc2ccccc21 (stereo not drawn) [HY301]
KLN
  IC50: 4.6 ± 1.2 µM
CRL-2813
  IC50: 1.5 ± 0.7 µM
[1]
  maximal fold induction at 20 µM: 15.1 ± 1.04
CRL-2351
  IC50: 0.9 ± 0.2 µM

## CC(C)(C)c1ccc(OCCN2CCNCC2)c(C2(c3cc(C(C)(C)C)ccc3OCCN3CCNCC3)C(=O)Nc3ccccc32)c1 [HY401]
KLN
  IC50: 10.6 ± 0.9 µM
CRL-2813
  IC50: 1.5 ± 0.9 µM
[1]
  maximal fold induction at 40 µM: 11.4 ± 0.65
CRL-2351
  IC50: 0.8 ± 0.1 µM
